Experimental data as given in PubChem BioAssay (NCI).
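The compound was tested at five concentrations on cells cultured in 96-well plates, with a 48-hour exposure period. Definition used: TGI = concentration required for complete inhibition of growth.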

How the values were obtained:
Assay in all cases: NCI tumour cell line growth inhibition, 48 h
[1] = system: 786-0 renal
[2] = system: A498 renal
[3] = system: A549 NSCLC
[4] = system: ACHN renal
[5] = system: BT-549 breast
[6] = system: CAKI-1 renal
[7] = system: CCRF-CEM leukemia
[8] = system: COLO 205 colon
[9] = system: DU-145 prostate
[10] = system: EKVX NSCLC
[11] = system: HCC-2998 colon
[12] = system: HCT-116 colon
[13] = system: HCT-15 colon
[14] = system: HL-60(TB) leukemia
[15] = system: HOP-62 NSCLC
[16] = system: HOP-92 NSCLC
[17] = system: HS 578T breast
[18] = system: HT29 colon
[19] = system: K-562 leukemia
[20] = system: KM12 colon
[21] = system: LOX IMVI melanoma
[22] = system: M14 melanoma
[23] = system: MALME-3M melanoma
[24] = system: MCF7 breast
[25] = system: MDA-MB-435
[26] = system: MOLT-4 leukemia
[27] = system: NCI-H23 lung
[28] = system: NCI-H460 lung
[29] = system: NCI-H522 lung
[30] = system: NCI/ADR-RES ovarian
[31] = system: OVCAR-3 ovarian
[32] = system: OVCAR-4 ovarian
[33] = system: OVCAR-5 ovarian
[34] = system: OVCAR-8 ovarian
[35] = system: PC-3 prostate
[36] = system: RPMI-8226 leukemia
[37] = system: RXF 393 renal
[38] = system: SF-268 CNS
[39] = system: SF-295 CNS
[40] = system: SF-539 CNS
[41] = system: SK-MEL-2 melanoma
[42] = system: SK-MEL-28 melanoma
[43] = system: SK-MEL-5 melanoma
[44] = system: SK-OV-3 ovarian
[45] = system: SN12C renal
[46] = system: SNB-19 CNS
[47] = system: SNB-75 CNS
[48] = system: SW-620 colon
[49] = system: T-47D breast
[50] = system: TK-10 renal
[51] = system: U251 CNS
[52] = system: UACC-257 melanoma
[53] = system: UO-31 renal
[54] = system: IGROV1 ovarian
[55] = system: MDA-MB-231 breast
[56] = system: NCI-H226 lung
[57] = system: UACC-62 melanoma

COc1cc(Nc2c(C#N)[n+]([O-])c3ccccc3[n+]2[O-])cc(OC)c1OC
TGI [1]: 49.8 µM
TGI [2]: > 100 µM
TGI [3]: > 100 µM
TGI [4]: > 100 µM
TGI [5]: > 100 µM
TGI [6]: > 100 µM
TGI [7]: > 100 µM
TGI [8]: 28.7 µM
TGI [9]: > 100 µM
TGI [10]: > 100 µM
TGI [11]: 86 µM
TGI [12]: 29.9 µM
TGI [13]: > 100 µM
TGI [14]: > 100 µM
TGI [15]: > 100 µM
TGI [16]: > 100 µM
TGI [17]: > 100 µM
TGI [18]: > 100 µM
TGI [19]: > 100 µM
TGI [20]: > 100 µM
TGI [21]: > 100 µM
TGI [22]: 36 µM
TGI [23]: > 100 µM
TGI [24]: 59 µM
TGI [25]: > 100 µM
TGI [26]: > 100 µM
TGI [27]: 38.2 µM
TGI [28]: > 100 µM
TGI [29]: > 100 µM
TGI [30]: 51 µM
TGI [31]: > 100 µM
TGI [32]: > 100 µM
TGI [33]: 54.7 µM
TGI [34]: > 100 µM
TGI [35]: > 100 µM
TGI [36]: > 100 µM
TGI [37]: > 100 µM
TGI [38]: > 100 µM
TGI [39]: > 100 µM
TGI [40]: > 100 µM
TGI [41]: > 100 µM
TGI [42]: > 100 µM
TGI [43]: 54.1 µM
TGI [44]: 67.4 µM
TGI [45]: > 100 µM
TGI [46]: > 100 µM
TGI [47]: > 100 µM
TGI [48]: > 100 µM
TGI [49]: 48.2 µM
TGI [50]: > 100 µM
TGI [51]: > 100 µM
TGI [52]: 67.2 µM
TGI [53]: > 100 µM

Cc1cc(C(=O)CBr)c(CN2C(=O)c3ccccc3C2=O)c(=O)n1C
TGI [1]: > 100 µM
TGI [3]: 44.7 µM
TGI [4]: 25.6 µM
TGI [5]: 32.7 µM
TGI [6]: 47.8 µM
TGI [7]: 6.25 µM
TGI [8]: 47.9 µM
TGI [9]: 30.5 µM
TGI [10]: 14.5 µM
TGI [11]: 59.7 µM
TGI [12]: > 100 µM
TGI [13]: 34.9 µM
TGI [14]: 25 µM
TGI [15]: > 100 µM
TGI [17]: 45.6 µM
TGI [18]: > 100 µM
TGI [54]: 64.2 µM
TGI [19]: 20.6 µM
TGI [20]: 40.1 µM
TGI [21]: 99.3 µM
TGI [22]: > 100 µM
TGI [23]: 36.8 µM
TGI [24]: 56 µM
TGI [55]: 40.2 µM
TGI [25]: 43.6 µM
TGI [26]: 5.57 µM
TGI [56]: > 100 µM
TGI [27]: > 100 µM
TGI [28]: 76.6 µM
TGI [29]: 37.4 µM
TGI [30]: > 100 µM
TGI [31]: 40.9 µM
TGI [32]: > 100 µM
TGI [33]: 52.6 µM
TGI [34]: 41.1 µM
TGI [35]: 35.5 µM
TGI [37]: 33.7 µM
TGI [38]: 54.9 µM
TGI [39]: > 100 µM
TGI [40]: 34.3 µM
TGI [41]: 61.7 µM
TGI [42]: 42.7 µM
TGI [44]: > 100 µM
TGI [45]: 36 µM
TGI [46]: 93.2 µM
TGI [47]: 56.5 µM
TGI [48]: 23 µM
TGI [49]: 74.4 µM
TGI [50]: 25.3 µM
TGI [51]: 38 µM
TGI [52]: 33.5 µM
TGI [57]: 34.7 µM
TGI [53]: 41.6 µM
